Assay results from patent publication US4421912A, “Cephalosporin derivatives” (Takeda Chemical Industries, Ltd., priority 1973, dated 1983).
In brackets after ≈: the same amount, converted by molar mass. Where two headings read alike, the source gives them in different places.

How the values were obtained:
E. coli NIHJ JC-2 = assay: Antibacterial spectra, agar dilution method; assay type: cell-based; conditions: Escherichia coli
Description: (§1) (mcg/ml., agar dilution method)
as §1
(§2) (mcg/ml, agar dilution method)
(§3) (mcg./ml., agar dilution method)

S. aureus 209P = assay: Antibacterial spectra, agar dilution method; assay type: cell-based; conditions: Staphylococcus aureus, 209P, read-out: Antibacterial spectra, S. aureus 209P, Table 11
Description: as §1, §1, §2, §3

S. aureus 1840 = assay: Antibacterial spectra, agar dilution method; assay type: cell-based
Description: as §1, §1, §2, §3

E. coli 0-111 = assay: Antibacterial spectra, agar dilution method; assay type: cell-based; conditions: Escherichia coli, 0111, E. coli 0-111, Table 11
Description: as §1, §1, §2, §3

P. morganii Eb53 = assay: Antibacterial spectra, agar dilution method; assay type: cell-based; conditions: Morganella morganii
Description: as §2, §3

E. coli T-7 = assay: Antibacterial spectra, agar dilution method; assay type: cell-based; conditions: Escherichia coli
Description: (§4) |(mcg./ml., agar dilution method)

P. vulgaris IFO 3988 = assay: Antibacterial spectra, agar dilution method; assay type: cell-based; conditions: Proteus vulgaris
Description: as §4

K. pneumoniae DT = assay: Antibacterial spectra, agar dilution method; assay type: cell-based; conditions: Klebsiella pneumoniae, Table 11
Escherichia coli 0111 = assay: Protective Effect on Infected Mice; assay type: in vivo; conditions: Escherichia coli, 0111, sc, 168 h, Table 12; male ICR/SLC mice; i.p. E. coli 0111; single subcutaneous dose immediately after challenge; 7 days; read-out: Protective Effect (ED50) on Infected Mice
Description: Protective Effect (ED50 * , mg/kg) on Infected Mice
*Test animals: male mice (ICR/SLC) 5 mice per group per single dose
Infection: intraperitoneally with Escherichia coli 0111
Administration: a single subcutaneous dose immediately after challenge
Observation period: 7 days
*Test animals: male mice (ICR/SLC) 5 mice per group single dose

[1] = NIHJJC2, read-out: Antibacterial spectra, E. coli NIHJ JC-2, Table 11
[2] = Staphylococcus aureus, 1840, read-out: Antibacterial spectra, S. aureus 1840, Table 11
[3] = P. morganii Eb53, agar dilution method, Table 11, read-out: Antibacterial spectra
[4] = T7, E. coli T-7, agar dilution method, Table 11, read-out: Antibacterial spectra
[5] = IFO3988, P. vulgaris IFO 3988, agar dilution method, Table 11, read-out: Antibacterial spectra
[6] = EB53, read-out: Antibacterial spectra
[7] = T7, read-out: Antibacterial spectra
[8] = Staphylococcus aureus, S. aureus 1840, Table 11, read-out: Antibacterial spectra
[9] = NIHJJC2, E. coli NIHJ JC-2, Table 11, read-out: Antibacterial spectra

SMILES | MIC (E. coli NIHJ JC-2; [1]) [µg/mL] | MIC (S. aureus 209P) [µg/mL] | MIC (S. aureus 1840; [2]) [µg/mL] | MIC (E. coli 0-111) [µg/mL] | MIC (P. morganii Eb53; [3]) [µg/mL] | MIC (E. coli T-7; [4]) [µg/mL] | MIC (P. vulgaris IFO 3988; [5]) [µg/mL] | MIC (K. pneumoniae DT) [µg/mL] | MIC (P. morganii Eb53; [6]) [µg/mL] | MIC (E. coli T-7; [7]) [µg/mL] | MIC (S. aureus 1840; [8]) [µg/mL] | MIC (P. vulgaris IFO 3988; IFO3988, read-out: Antibacterial spectra) [µg/mL] | ED50 (Escherichia coli 0111) [mg/kg] | MIC (E. coli NIHJ JC-2; [9]) [µg/mL]
Nc1nc(CC(=O)NC2C(=O)N3C(C(=O)O)=C(CSc4nnc(N)s4)CSC23)cs1 (centres unmarked) [Compound 4] | 0.78 (≈ 1.61 µM) | 0.2 (≈ 0.412 µM) | 0.78 (≈ 1.61 µM) | 0.1 (≈ 0.206 µM) | 50 (≈ 103 µM) | 100 (≈ 206 µM) | 0.2 (≈ 0.412 µM) | 0.2 (≈ 0.412 µM) | – | – | – | – | – | –
Nc1nc(CC(=O)NC2C(=O)N3C(C(=O)[O-])=C(CSc4nnc(SCCO)s4)CS[C@H]23)cs1.[Na+] (some centres unmarked) [Compound 6, sodium 7-[2-(2-aminothiazol-4-yl)acetamido]-3-[2-(2-hydroxyethylthio)1,3,4-thiadiazol-5-yl)thiomethyl-3-cephem-4-carboxylate] | 0.78 | ≤ 0.2 | 0.78 | ≤ 0.2 | – | – | 0.39 | ≤ 0.2 | 6.25 | 12.5 | – | – | – | –
CN(C)CC(=O)Nc1nnc(SCC2=C(C(=O)O)N3C(=O)C(NC(=O)Cc4csc(N)n4)C3SC2)s1 (centres unmarked) [Compound 7] | 0.78 (≈ 1.37 µM) | 0.78 (≈ 1.37 µM) | – | ≤ 0.2 | – | 25 (≈ 43.8 µM) | 0.39 (≈ 0.683 µM) | ≤ 0.2 | 12.5 (≈ 21.9 µM) | – | 3.13 (≈ 5.48 µM) | – | – | –
CN(C)C(=O)Cc1nnc(SCC2=C(C(=O)[O-])N3C(=O)C(NC(=O)Cc4csc(N)n4)[C@H]3SC2)s1.[Na+] (some centres unmarked) [Compound 8, sodium 7-[2-(2-aminothiazol-4-yl)acetamido]-3-[2-(N,N-dimethylcarbamoylmethyl)-1,3,4-thiadiazol-5-yl]thiomethyl-3-cephem-4-carboxylate] | 0.78 | 0.39 | 0.78 | ≤ 0.2 | – | – | – | ≤ 0.2 | < 0.2 | 12.5 | – | 0.39 | – | –
CC(=O)OCCSc1nnc(SCC2=C(C(=O)[O-])N3C(=O)C(NC(=O)Cc4csc(N)n4)[C@H]3SC2)s1.[Na+] (some centres unmarked) [Compound 11, sodium 7-[2-(2-aminothiazol-4-yl)acetamido]-3-[2-(2-acetoxyethylthio)-1,3,4-thiadiazol-5-yl]thiomethyl-3-cephem-4-carboxylate] | – | – | – | – | – | – | – | – | – | – | – | – | < 0.625 | –
Nc1nc(CC(=O)NC2C(=O)N3C(C(=O)O)=C(CSc4nnc(NCCS(=O)(=O)O)s4)CSC23)cs1 (centres unmarked) [Compound 22] | 0.78 (≈ 1.31 µM) | 0.78 (≈ 1.31 µM) | – | ≤ 0.2 | – | 25 (≈ 42.1 µM) | ≤ 0.2 | ≤ 0.2 | 0.78 (≈ 1.31 µM) | – | 3.13 (≈ 5.27 µM) | – | – | –
CC(=O)CSc1nnc(SCC2=C(C(=O)O)N3C(=O)C(NC(=O)Cc4csc(N)n4)C3SC2)s1 (centres unmarked) [Compound 23] | – | ≤ 0.2 | 0.78 (≈ 1.4 µM) | 0.39 (≈ 0.698 µM) | 3.13 (≈ 5.6 µM) | 25 (≈ 44.7 µM) | 0.39 (≈ 0.698 µM) | ≤ 0.2 | – | – | – | – | – | 1.56 (≈ 2.79 µM)
CSCc1nnc(SCC2=C(C(=O)O)N3C(=O)C(NC(=O)Cc4csc(N)n4)C3SC2)s1 (centres unmarked) [Compound 24] | – | ≤ 0.2 | 0.78 (≈ 1.47 µM) | 0.39 (≈ 0.735 µM) | 25 (≈ 47.1 µM) | 25 (≈ 47.1 µM) | 0.39 (≈ 0.735 µM) | ≤ 0.2 | – | – | – | – | – | 1.56 (≈ 2.94 µM)
CS(=O)(=O)Cc1nnc(SCC2=C(C(=O)O)N3C(=O)C(NC(=O)Cc4csc(N)n4)C3SC2)s1 (centres unmarked) [Compound 25] | 0.39 (≈ 0.693 µM) | 0.39 (≈ 0.693 µM) | 0.78 (≈ 1.39 µM) | ≤ 0.2 | 25 (≈ 44.4 µM) | 100 (≈ 178 µM) | 0.39 (≈ 0.693 µM) | ≤ 0.2 | – | – | – | – | – | –
CN(C)CCn1nnnc1SCC1=C(C(=O)O)N2C(=O)C(NC(=O)Cc3csc(N)n3)C2SC1 (centres unmarked) [Compound 28] | 0.39 (≈ 0.742 µM) | 0.39 (≈ 0.742 µM) | 1.56 (≈ 2.97 µM) | ≤ 0.2 | – | 3.13 (≈ 5.95 µM) | 0.78 (≈ 1.48 µM) | ≤ 0.2 | ≤ 0.2 | – | – | – | – | –
NC(=O)Cn1nnnc1SCC1=C(C(=O)O)N2C(=O)C(NC(=O)Cc3csc(N)n3)C2SC1 (centres unmarked) [Compound 29] | 0.39 (≈ 0.762 µM) | 0.78 (≈ 1.52 µM) | 1.56 (≈ 3.05 µM) | ≤ 0.2 | – | 3.13 (≈ 6.12 µM) | ≤ 0.2 | ≤ 0.2 | ≤ 0.2 | – | – | – | – | –
Nc1nc(CC(=O)NC2C(=O)N3C(C(=O)O)=C(CSc4nc(CC(=O)O)cs4)CSC23)cs1 (centres unmarked) [Compound 30] | – | 0.39 (≈ 0.739 µM) | 1.56 (≈ 2.96 µM) | 0.39 (≈ 0.739 µM) | 50 (≈ 94.8 µM) | 100 (≈ 190 µM) | 0.2 (≈ 0.379 µM) | < 0.05 | – | – | – | – | – | 1.56 (≈ 2.96 µM)
